pIC50: −log10 of the molar value. Where two headings read alike, the source gives them in different places. Bounds are passed on as bounds.

As a reminder, the inhibition is the change of the read-out against control, counted positive when it falls.

Data set [1] deals with T1, Hepatit B virus DNA polymerase (Hepatitis B virus genotype D subtype ayw, UniProt P03156).
T1 construct: The HBV-DNAP was prepared from virus obtained from human serum; from tissue; host or cells: hepatitis B virus particles from human serum, solubilized with Nonidet P40
The data set can be described thus: Test III Inhibition of HBV DNA polymerase by triphosphates. In kind it is biochemical. The conditions noted are these: virus preparation from human serum, endogenous nucleic acid as template; read-out: Concentration for 50% inhibition (IC50) of HBV DNAP. The text has this:
(§1) Test III Inhibition of reverse transcriptases and DNA polymerases by triphosphates of compounds of the invention
(§2) The 5'-triphosphates were synthesized essentially as described (Yoshikawa, M, Kato T, Takenishi T, Bull. Chem. Soc. (Japan), 42,3505-3508, 1969; Ludwig, J., Acta Biochim. Biophys. Acad. Sci. Hung. 16, 131-133, 1981; Ruth, J. L., Cheng, Y. C., Mol. Pharmacol. 20, 415 1981.) The HIV-RT was obtained as described by Hansen et al (Hansen J, Schulze T and Moelling K, J. Biol. Chem. 262, 12393-12396, 1987) from culture of Escherichia coli expressing the cloned HIV-pol gene. The HBV-DNAP was prepared from virus obtained from human serum, essentially as described by Nordenfelt et al (1987) [Nordenfelt E, Lofgren B, Chattopadhyaya J., Oberg B, J. Med. Virol. 22, 231-236, 1987]. The HSV-2 DNAP and cellular DNAPα preparation and reaction conditions have been described by Larsson et al [Larsson A, Sundqvist A, Parnerud A-M, 1986, Mol. Pharmacol. 29, 614-621]. […] The hepatitis B virus enzyme activity was determined with a virus preparation solubilized by non-idet P40, and endogenous nucleic acid as template, as described by Nordenfelt et al (vide supra)

Data set [2] has as its target Herpes simplex virus type 2 DNA polymerase (Human herpesvirus 2, UniProt P89453). The data set can be described thus: Test III Inhibition of HSV-2 DNA polymerase by triphosphates. In kind it is biochemical. The conditions noted are these: read-out: Concentration for 50% inhibition (IC50) of HSV-2 DNAP.
Excerpt: as §1, §2

A further data set addresses T2, DNA polymerase alpha (Homo sapiens, UniProt P09884).
T2 sequence (P09884 1-1462): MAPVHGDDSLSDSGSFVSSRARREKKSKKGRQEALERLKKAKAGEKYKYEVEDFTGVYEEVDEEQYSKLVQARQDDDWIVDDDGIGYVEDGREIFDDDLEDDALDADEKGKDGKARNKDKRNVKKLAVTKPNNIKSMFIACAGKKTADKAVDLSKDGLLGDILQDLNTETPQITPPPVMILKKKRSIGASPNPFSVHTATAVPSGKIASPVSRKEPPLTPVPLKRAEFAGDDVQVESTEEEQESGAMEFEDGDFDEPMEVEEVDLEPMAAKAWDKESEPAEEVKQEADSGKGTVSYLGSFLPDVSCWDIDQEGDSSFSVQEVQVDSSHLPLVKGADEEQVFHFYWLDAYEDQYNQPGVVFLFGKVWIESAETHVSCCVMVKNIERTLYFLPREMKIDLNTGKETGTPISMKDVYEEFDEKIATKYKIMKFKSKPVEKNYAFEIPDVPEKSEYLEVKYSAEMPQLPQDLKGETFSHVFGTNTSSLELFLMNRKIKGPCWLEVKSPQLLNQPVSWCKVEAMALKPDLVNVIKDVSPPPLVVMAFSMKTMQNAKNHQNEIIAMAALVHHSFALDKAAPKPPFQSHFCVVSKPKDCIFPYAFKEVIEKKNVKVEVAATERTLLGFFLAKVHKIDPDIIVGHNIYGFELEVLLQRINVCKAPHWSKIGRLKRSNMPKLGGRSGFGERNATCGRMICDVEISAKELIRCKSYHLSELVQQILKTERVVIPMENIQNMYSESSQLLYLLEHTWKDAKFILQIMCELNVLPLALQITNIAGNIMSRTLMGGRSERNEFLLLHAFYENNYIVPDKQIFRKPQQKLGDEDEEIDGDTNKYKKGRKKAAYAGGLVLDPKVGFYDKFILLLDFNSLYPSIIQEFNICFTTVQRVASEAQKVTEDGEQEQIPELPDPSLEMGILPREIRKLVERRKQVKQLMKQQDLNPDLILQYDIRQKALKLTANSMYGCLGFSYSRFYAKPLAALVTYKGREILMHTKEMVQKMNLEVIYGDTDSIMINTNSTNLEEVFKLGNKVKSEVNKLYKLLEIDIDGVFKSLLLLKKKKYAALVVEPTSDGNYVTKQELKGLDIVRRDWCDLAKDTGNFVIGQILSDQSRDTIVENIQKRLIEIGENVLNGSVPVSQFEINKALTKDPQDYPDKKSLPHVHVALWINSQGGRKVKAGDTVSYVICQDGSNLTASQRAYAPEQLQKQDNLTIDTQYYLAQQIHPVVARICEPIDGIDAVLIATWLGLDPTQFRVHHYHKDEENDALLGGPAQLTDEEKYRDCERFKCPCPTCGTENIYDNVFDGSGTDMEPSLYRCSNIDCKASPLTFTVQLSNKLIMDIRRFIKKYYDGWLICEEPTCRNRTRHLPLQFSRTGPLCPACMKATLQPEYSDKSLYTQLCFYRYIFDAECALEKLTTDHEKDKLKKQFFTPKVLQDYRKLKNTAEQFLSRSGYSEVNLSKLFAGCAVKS
The experiment in a line: Test III Inhibition of cellular DNA polymerase alpha by triphosphates. The note with it: cellular DNAPα; read-out: Concentration for 50% inhibition (IC50) of DNAPα. In kind it is biochemical.
Excerpt: as §1, §2

The target of data set [3] is T3, Human immuno deficiency virus reverse transcriptase (Human immunodeficiency virus type 1 group M subtype B, UniProt P04585).
T3 construct: Human immuno deficiency virus reverse transcriptase; made in house; host or cells: Escherichia coli
The experiment in a line: Test III Inhibition of HIV reverse transcriptase by triphosphates. The note with it: template (rA)n(dT)12-18, substrate dTTP; read-out: Concentration for 50% inhibition (IC50) of HIV RT. In kind it is biochemical.
Excerpt: as §1, §2

Data set [4] is described as follows: Test II Cellular toxicity on H9 cells (cell number after 48 h). The format is cell-based. The conditions noted are these: human, read-out: % inhibition of cell multiplication, H9.
Data set [5] in a line: Test II Cellular toxicity on F5000 cells (cell number after 48 h). The format is cell-based, human. The note with it: human, read-out: % inhibition of cell multiplication, F 5000. Here is the method:
(§3) Test II Cellular toxicity
(§4) F5000 cells, which are human embryo cells, 1×10^5 cells per plate, are incubated in Eagle's minimal essential medium, supplemented with Earle's salts, non-essential amino acids, 10% fetal calf serum, 10 mM hepes, 70 mg/l penicillin and 100 mg/l streptomycin, in absence or presence of test compounds. The number of cells per plate is determined after 48 h.

For the next data set, the system named is HIV (HTLV-IIIB). The data set can be described thus: Test I Effect of compounds on HIV in H9 cells (frequency of HIV antigen containing cells). The format is cell-based. Here is the method: Test I Effect of compounds of the formula I on HIV in H9 cells
Materials and methods: HIV infection of H9 cells
H9 cells, 10^5 cells per well on a 24 well plate, suspended in 2 ml RPMI-medium containing 10% fetal calf serum, 100 μg/ml pencillin, 10 μg/ml streptomycin sulfate and 2 μg/ml polybrene are exposed to HIV (HTLV-IIIB) and different concentrations of the test compounds. The plates are incubated at 37° C. in 5% CO2 for 6-7 days. The contents in each well is then homogenized with a pipette and transferred to a centrifuge tube. After centrifugation for 10 min at 1500 rpm the supernatant is removed and the cell pellet is analyzed by fixing in methanol on glass plates. Human HIV positive serum diluted 1:80 or 1:160 is added and incubated for 30 min at 37° C. The plate is then washed with phosphate-buffered saline (PBS) containing Ca^2+ and Mg^2 +. Sheep antihuman conjugate (FITC) is added and after a new incubation the plate is again washed with PBS. Contrast staining is done with Evans blue and after drying the frequency of HIV antigen containing cells is determined in a microscope.

The subject of another data set is H9 cells. The experiment in a line: Test II Cellular toxicity on H9 cells (cell number after 48 h). In kind it is cell-based. The conditions noted are these: 200 μM.
A further data set deals with F5000 cells. The experiment in a line: Test II Cellular toxicity on F5000 cells (cell number after 48 h). In kind it is cell-based, human. The note with it: 100 μM. Here is the method: as §3, §4
Setting [6] is: Human immunodeficiency virus 1, H9 cells, HIV (HTLV-IIIB), 6-7 days, read-out: Concentration for 50% inhibition (IC50) of human immuno deficiency virus multiplication in cell culture.
[7] abbreviates: Human immunodeficiency virus 1, IIIB, H9, read-out: Concentration for 50% inhibition (IC50) of human immuno deficiency virus multiplication in cell culture.

Herpes simplex virus type 2 DNA polymerase, sequence (P89453 whole entry): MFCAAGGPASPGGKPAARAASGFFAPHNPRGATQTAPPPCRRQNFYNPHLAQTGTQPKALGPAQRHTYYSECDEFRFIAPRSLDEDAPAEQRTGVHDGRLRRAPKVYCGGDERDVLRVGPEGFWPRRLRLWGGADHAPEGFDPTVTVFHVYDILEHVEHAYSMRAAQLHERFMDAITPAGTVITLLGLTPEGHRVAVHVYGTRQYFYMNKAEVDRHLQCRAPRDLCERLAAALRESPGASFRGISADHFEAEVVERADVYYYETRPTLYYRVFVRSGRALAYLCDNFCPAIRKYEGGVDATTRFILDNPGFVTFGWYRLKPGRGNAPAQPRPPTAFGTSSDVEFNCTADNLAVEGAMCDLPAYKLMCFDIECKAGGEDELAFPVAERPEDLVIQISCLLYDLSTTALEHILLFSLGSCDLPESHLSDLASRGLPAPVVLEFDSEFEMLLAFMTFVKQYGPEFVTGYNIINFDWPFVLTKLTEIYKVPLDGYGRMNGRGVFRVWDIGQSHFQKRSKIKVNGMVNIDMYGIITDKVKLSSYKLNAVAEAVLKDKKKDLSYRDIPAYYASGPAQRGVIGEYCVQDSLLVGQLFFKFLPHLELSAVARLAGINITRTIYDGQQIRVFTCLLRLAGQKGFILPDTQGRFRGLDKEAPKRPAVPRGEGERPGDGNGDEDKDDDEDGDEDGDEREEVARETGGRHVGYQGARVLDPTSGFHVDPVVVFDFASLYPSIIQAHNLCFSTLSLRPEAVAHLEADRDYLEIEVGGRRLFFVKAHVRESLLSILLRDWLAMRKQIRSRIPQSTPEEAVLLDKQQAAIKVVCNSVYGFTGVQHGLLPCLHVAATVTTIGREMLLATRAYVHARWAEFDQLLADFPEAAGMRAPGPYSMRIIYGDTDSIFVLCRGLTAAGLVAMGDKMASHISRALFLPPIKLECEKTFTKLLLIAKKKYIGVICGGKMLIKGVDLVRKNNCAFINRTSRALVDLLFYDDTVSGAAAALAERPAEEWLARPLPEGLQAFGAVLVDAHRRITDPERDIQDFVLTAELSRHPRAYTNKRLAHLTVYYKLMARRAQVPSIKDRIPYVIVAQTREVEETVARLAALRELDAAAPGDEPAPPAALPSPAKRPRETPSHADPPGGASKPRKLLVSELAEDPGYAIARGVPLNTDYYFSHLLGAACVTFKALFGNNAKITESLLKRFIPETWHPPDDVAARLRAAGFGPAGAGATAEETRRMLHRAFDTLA
T1 sequence (P03156 whole entry): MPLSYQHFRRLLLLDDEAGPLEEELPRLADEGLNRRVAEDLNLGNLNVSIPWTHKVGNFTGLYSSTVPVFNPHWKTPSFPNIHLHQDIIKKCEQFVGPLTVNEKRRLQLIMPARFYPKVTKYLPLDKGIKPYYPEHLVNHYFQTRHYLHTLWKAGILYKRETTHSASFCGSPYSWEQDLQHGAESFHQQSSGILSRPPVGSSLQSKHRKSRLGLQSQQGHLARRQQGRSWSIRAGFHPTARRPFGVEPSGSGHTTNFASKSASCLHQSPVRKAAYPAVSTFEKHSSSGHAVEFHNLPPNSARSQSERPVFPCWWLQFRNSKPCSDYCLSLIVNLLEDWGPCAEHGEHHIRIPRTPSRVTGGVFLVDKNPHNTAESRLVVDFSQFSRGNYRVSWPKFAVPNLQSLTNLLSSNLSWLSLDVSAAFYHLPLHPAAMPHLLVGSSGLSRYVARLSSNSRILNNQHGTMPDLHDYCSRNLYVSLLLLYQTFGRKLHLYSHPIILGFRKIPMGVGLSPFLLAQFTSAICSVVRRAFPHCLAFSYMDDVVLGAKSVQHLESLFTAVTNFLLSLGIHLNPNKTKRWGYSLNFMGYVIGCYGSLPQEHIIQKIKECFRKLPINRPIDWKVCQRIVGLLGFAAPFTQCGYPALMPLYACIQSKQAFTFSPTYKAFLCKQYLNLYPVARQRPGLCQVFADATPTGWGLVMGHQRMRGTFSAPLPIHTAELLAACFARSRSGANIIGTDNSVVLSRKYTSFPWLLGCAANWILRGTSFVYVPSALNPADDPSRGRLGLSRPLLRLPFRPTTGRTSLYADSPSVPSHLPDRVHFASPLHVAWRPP

Turning to `O=c1[nH]c(=O)n([C@@H]2C[C@H](O)[C@@H](COP(=O)(O)OP(=O)(O)OP(=O)(O)O)O2)cc1-c1cccs1` [1-(2-Deoxy-alpha-D-ribofuranasyl)-5-(2-thienyl)uracil-5'-triphosphate], the pIC50 in data set [1] was 4.74; in data set [2] it was 4.96; on DNA polymerase alpha, 4.10; in data set [3], 5.70.

In the case of `O=c1[nH]c(=O)n([C@H]2C[C@H](O)[C@@H](COP(=O)(O)OP(=O)(O)OP(=O)(O)O)O2)cc1-c1cccs1` [1-(2-Deoxy-beta-D-ribofuranosyl)-5-(2-thienyl)uracil-5'-triphosphate], the pIC50 was 6.96 in [1], 7.22 in data set [2], 5.80 on DNA polymerase alpha and 7.82 in [3].

On to `O=c1[nH]c(=O)n([C@@H]2C[C@H](O)[C@@H](CO)O2)cc1-c1cccs1` [VSA 134, 1-(2-Deoxy-alpha-D-ribofuranosyl)-5-(2-thienyl)uracil], for which the inhibition at 48 h, 250 µM in data set [4] (250 μM) is 35%. In data set [5] (100 μM), the inhibition at 48 h, 100 µM lay within 0 to 35%. For the same molecule, in the data set with HIV (HTLV-IIIB) (setting [6]), the pIC50 was 5.00 to 7.30.

`O=c1[nH]c(=O)n([C@@H]2C[C@H](O)[C@@H](CO)O2)cc1-c1ccc[se]1` [VSA 188]: the inhibition at 48 h, 200 µM in [4] was 40%; in data set [5] it was 15%. In addition, the pIC50 with HIV (HTLV-IIIB) (setting [7]) was 4.70 to 5.70.

For the molecule `O=c1[nH]c(=O)n([C@H]2C[C@H](O)[C@@H](CO)O2)cc1-c1cccs1` [VSA 189], in the data set on H9 cells, the “% inhibition of cell multiplication, H9” value worked out at 35%. The “% inhibition of cell multiplication, F 5000” value in the data set with F5000 cells was 10%.

In the case of `O=c1[nH]c(=O)n([C@H]2C[C@H](O)[C@@H](CO)O2)cc1-c1cc[se]c1` [VSA 992], the inhibition at 48 h, 200 µM in data set [4] worked out at 40%; in data set [5], 0%.

As to `O=c1[nH]c(=O)n([C@@H]2C[C@H](O)[C@@H](CO)O2)cc1-c1cc[se]c1` [VSA 996], the inhibition at 48 h, 200 µM in [4] stood at 65%; in data set [5] it was 30%. Moreover, in the data set with HIV (HTLV-IIIB) (setting [7]), the pIC50 is 4.00 to 5.52.

As for `O=c1[nH]c(=O)n([C@@H]2C[C@H](O)[C@@H](CO)O2)cc1-c1ccco1` [VSB 007, 1-(2-Deoxy-alpha-D-ribofuranosyl)-5-(2-furyl)uracil], the pIC50 in the data set with HIV (HTLV-IIIB) (setting [6]) was > 5.00.

As for `O=c1[nH]c(=O)n([C@H]2C[C@H](O)[C@@H](CO)O2)cc1-c1ccco1` [VSB 008, 1-(2-Deoxy-beta-D-ribofuranosyl)-5-(2-furyl)uracil], the inhibition at 48 h, 200 µM in data set [5] is 0%.

(Values after patent US5576429A, “5-substituted pyrimidine nucleosides and nucleotides” (Medivir AB, priority 1988, dated 1996).)
